“And” between values parts separate entries of the source, which are not always exact repeats. Identical values can stand only once.
What was measured:
[1] = tested on: IL-8–activated human neutrophils; experiment: Chemotaxis of IL-8–activated human neutrophils (transwell, CellTiter Glo); assay type: cell-based; details: for Neutrophilic chemotaxis, RLU, Mean / Neutrophilic chemotaxis: % reduction / Neutrophilic chemotaxis, RLU, single replicates: IL-8; for Neutrophilic chemotaxis, RLU, single replicates: listed as Ref
Text: Buffy coat (blood sample fraction comprising white blood cells and platelets) from whole blood was obtained from a healthy adult volunteer at the Croatian Institute of Transfusion Medicine (CITM; Zagreb, Croatia). The CITM ethics committee approved the blood collection process, and the volunteer provided written informed consent prior to blood collection. Neutrophils were isolated from the buffy coat, an aliquot of which was used for cell counting via hematologic analyzer (X500i; Sysmex). […] The diluted buffy coat was drawn into sterile 50-mL syringes and incubated for 30 minutes at RT. Following incubation, the upper layer of leukocyte-rich plasma (35 mL) was decanted into a new sterile 50-mL conical centrifuge tube, carefully layered onto 15 mL of Lymphoprep (Axis-Shield Diagnostics, Ltd., Dundee, UK) and centrifuged at 400×g (brake turned off) for 35 minutes at RT. The supernatant and mononuclear ring were discarded, and the pellet was resuspended in 10 mL of cold sterile MilliQ water. […] Resuspended neutrophils were counted via Sysmex X500i hematologic analyzer.
All test compounds were reconstituted in DMSO (Sigma-Aldrich Chemie GmbH) to 100-mM stock concentrations, taking into consideration and correcting for salt and purity. A 30-mM stock solution of reference compound Sch527123 (MedChemExpress, Monmouth Junction, NJ, USA) was diluted to 10 mM with DMSO.
DMSO was used as vehicle. […] The reference compound was tested at concentrations of 0.003, 0.01, 0.03, 0.1, 0.3, 1, 3, and 10 μM. All compounds were tested in triplicate, and the final DMSO concentration was 0.1% per well.
Test and reference compound working solutions were then added (20 μL/well) for a 10-fold dilution to final testing concentrations. Compounds and cells were mixed by gentle pipetting, and the plate was pre-incubated for 30 minutes at RT with gentle mixing by pipetting.
Negative control wells received 180 μL of migration medium alone. To all wells, 20 μL of compound working solutions or DMSO vehicle was added. Once pre-incubation of cells with compounds was complete, the transwell inserts were carefully placed on the receiver plate, with caution to avoid air bubble formation, which could prevent cell migration. To the upper wells, 75 μL of cell suspension (375,000 cells/well) was added, taking care not to tear the membrane with pipette tips.
After incubation, the number of cells that migrated to the lower wells was quantified by removing the Transwell insert and adding 200 μL of CellTiter Glo reagent (CellTiter-Glo Luminescent Cell Viability Assay, Promega, Madison, WI, USA) to each lower well to quantify the amount of adenosine triphosphate (ATP) present, signaling the presence of metabolically active cells. The plate was incubated for 10 minutes in the dark at RT, followed by transferring 150 μL of solution into wells of a white 96-well plate (Lumitrac 200; Greiner Bio-One International GmbH, Kremsmunster, Austria).
For the chemotaxis and cytotoxicity evaluations, average relative light unit values were calculated from all untreated vehicle samples and, for each sample, percentage of vehicle value was calculated. The tested compound was considered cytotoxic if reduction from untreated vehicle was ≥20%.

[2] = tested on: murine RAW 264.7 macrophages; details: cited from earlier work
[3] = tested on: LPS-induced acute lung injury; details: cited from earlier work
[4] = tested on: methicillin-resistant Staphylococcus aureus wound infection; parameters: method as in PMID 32079232; details: MRSA wound infection mouse model; cited from earlier work

CC[C@@H](Nc1c(Nc2cccc(C(=O)N(C)C)c2O)c(=O)c1=O)c1ccc(C)o1 [Sch527123]
IL-8–induced chemotaxis of human neutrophils ([1]; 0.003 to 10 μM): dose-dependent inhibition
Neutrophilic chemotaxis, RLU, Mean ([1]; 0.003 µM): 136013 RLU
Neutrophilic chemotaxis: % reduction ([1]; 0.003 µM): -2.55%
Neutrophilic chemotaxis, RLU, single replicates ([1]; 0.003 µM): 126680 RLU and 141280 RLU and 140080 RLU
Neutrophilic chemotaxis, RLU, Mean ([1]; 0.01 µM): 145907 RLU
Neutrophilic chemotaxis: % reduction ([1]; 0.01 µM): -11%
Neutrophilic chemotaxis, RLU, single replicates ([1]; 0.01 µM): 164560 RLU and 147560 RLU and 125600 RLU
Neutrophilic chemotaxis, RLU, Mean ([1]; 0.03 µM): 131720 RLU
Neutrophilic chemotaxis: % reduction ([1]; 0.03 µM): 1.09%
Neutrophilic chemotaxis, RLU, single replicates ([1]; 0.03 µM): 131800 RLU and 131640 RLU
Neutrophilic chemotaxis, RLU, Mean ([1]; 0.1 µM): 87493 RLU
Neutrophilic chemotaxis: % reduction ([1]; 0.1 µM): 39%
Neutrophilic chemotaxis, RLU, single replicates ([1]; 0.1 µM): 83280 RLU and 83800 RLU and 95400 RLU
Neutrophilic chemotaxis, RLU, Mean ([1]; 0.3 µM): 34307 RLU
Neutrophilic chemotaxis: % reduction ([1]; 0.3 µM): 84%
Neutrophilic chemotaxis, RLU, single replicates ([1]; 0.3 µM): 34560 RLU and 36480 RLU and 31880 RLU
Neutrophilic chemotaxis, RLU, Mean ([1]; 1 µM): 20080 RLU
Neutrophilic chemotaxis: % reduction ([1]; 1 µM): 96%
Neutrophilic chemotaxis, RLU, single replicates ([1]; 1 µM): 21040 RLU and 22120 RLU and 17080 RLU
Neutrophilic chemotaxis, RLU, Mean ([1]; 3 µM): 18067 RLU
Neutrophilic chemotaxis: % reduction ([1]; 3 µM): 97%
Neutrophilic chemotaxis, RLU, single replicates ([1]; 3 µM): 19800 RLU and 19160 RLU and 15240 RLU
Neutrophilic chemotaxis, RLU, Mean ([1]; 10 µM): 19573 RLU
Neutrophilic chemotaxis: % reduction ([1]; 10 µM): 96%
Neutrophilic chemotaxis, RLU, single replicates ([1]; 10 µM): 21800 RLU and 20760 RLU and 16160 RLU

C=C[C@]1(C)C[C@@H](OC(=O)CSC(C)(C)CNC(=O)[C@H](N)C(C)C)[C@]2(C)[C@H](C)CC[C@]3(CCC(=O)[C@H]32)[C@@H](C)[C@@H]1O [valnemulin]
LPS-induced production of inflammatory mediators, including nitric oxide, prostaglandin E2, TNF-α, and IL-6 [2]: significantly inhibited
LPS-induced pulmonary edema, accumulation of inflammatory cells in BALF, and increased inflammatory cytokines (eg, TNF-α and IL-6) ([3]; pretreated mice vs no-treatment control group): significantly attenuated

C=C[C@]1(C)C[C@@H](OC(=O)CSc2ccccc2N)[C@]2(C)[C@H](C)CC[C@]3(CCC(=O)[C@H]32)[C@@H](C)[C@@H]1O [amphenmulin, 22-(2-amino-phenylsulfanyl)-22-deoxypleuromutilin]
TNF-α, IL-6, and CCL-2 serum levels [4]: significantly reduced

CC[C@H]1OC(=O)[C@H](C)[C@@H](O[C@H]2C[C@@](C)(OC)[C@@H](O)[C@H](C)O2)[C@H](C)[C@@H](O[C@@H]2O[C@H](C)C[C@H](N(C)C)[C@H]2O)[C@](C)(OC)C[C@@H](C)C(=O)[C@H](C)[C@@H](O)[C@]1(C)O [clarithromycin]
neutrophil recruitment ([3]; pretreatment in LPS-induced acute lung injury models): significantly reduced

From publication PMC8480901 (PLoS ONE, 2021)
